In ChEMBL document CHEMBL5550210, “Discovery of Novel α,β-Unsaturated Amide Derivatives as Candidate Antifungals to Overcome Fungal Resistance” (J Med Chem, 2024):
≈ marks a conversion by molar mass, not a printed value.

Key:
Assay type in all cases: functional
Candida albicans [1] = assay: Antifungal activity against Candida albicans CPCC400616 assessed as inhibition of fungal growth by CLSI protocol based microdilution method
Candida albicans [2] = assay: Antifungal activity against Candida albicans SC5314 assessed as inhibition of fungal growth by CLSI protocol based microdilution method
Candida parapsilosis = assay: Antifungal activity against Candida parapsilosis ATCC 22019 assessed as inhibition of fungal growth by CLSI protocol based microdilution method; conditions: Lodderomyces parapsilosis
Nakaseomyces glabratus = assay: Antifungal activity against Candida glabrata assessed as inhibition of fungal growth by CLSI protocol based microdilution method
Pichia kudriavzevii = assay: Antifungal activity against Candida krusei AS 2.1045 assessed as inhibition of fungal growth by CLSI protocol based microdilution method
Candida tropicalis = assay: Antifungal activity against Candida tropicalis CGMCC 2.3739 assessed as inhibition of fungal growth by CLSI protocol based microdilution method
Cryptococcus neoformans = assay: Antifungal activity against Cryptococcus neoformans CGMCC2.3161 assessed as inhibition of fungal growth by CLSI protocol based microdilution method
Aspergillus fumigatus = assay: Antifungal activity against Aspergillus fumigatus CGMCC 3.7795 assessed as inhibition of fungal growth by CLSI protocol based microdilution method
Candida albicans [3] = assay: Antifungal activity against fluconazole-resistant Candida albicans CaR assessed as inhibition of fungal growth by CLSI based microdilution method
Candida albicans [4] = assay: Antifungal activity against fluconazole-resistant Candida albicans 17 assessed as inhibition of fungal growth by CLSI based microdilution method
Candida albicans [5] = assay: Antifungal activity against fluconazole-resistant Candida albicans 632 assessed as inhibition of fungal growth by CLSI based microdilution method
Candida albicans [6] = assay: Antifungal activity against fluconazole-resistant Candida albicans 904 assessed as inhibition of fungal growth by CLSI based microdilution method
Candida albicans [7] = assay: Antifungal activity against fluconazole-resistant Candida albicans 901 assessed as inhibition of fungal growth by CLSI based microdilution method

COc1ccc(NC(=O)/C=C/c2ccc(COC(Cn3ccnc3)c3ccc(Cl)cc3Cl)cc2)cc1 (configuration not stated)
MIC (Candida albicans [1]): 0.03 µg/mL (≈ 0.0574 µM) | MIC (Candida albicans [2]): 0.06 µg/mL (≈ 0.115 µM) | MIC (Candida parapsilosis): 0.125 µg/mL (≈ 0.239 µM) | MIC (Nakaseomyces glabratus): 4 µg/mL (≈ 7.66 µM) | MIC (Pichia kudriavzevii): 2 µg/mL (≈ 3.83 µM) | MIC (Candida tropicalis): 4 µg/mL (≈ 7.66 µM) | MIC (Cryptococcus neoformans): 0.125 µg/mL (≈ 0.239 µM) | MIC (Aspergillus fumigatus): 4 µg/mL (≈ 7.66 µM) | MIC (Candida albicans [3]): 4 µg/mL (≈ 7.66 µM) | MIC (Candida albicans [4]): 2 µg/mL (≈ 3.83 µM) | MIC (Candida albicans [5]): 0.25 µg/mL (≈ 0.479 µM) | MIC (Candida albicans [6]): 4 µg/mL (≈ 7.66 µM) | MIC (Candida albicans [7]): 4 µg/mL (≈ 7.66 µM)

O=C(/C=C/c1ccc(COC(Cn2ccnc2)c2ccc(Cl)cc2Cl)cc1)Nc1ccc(Br)cc1 (configuration not stated)
MIC (Candida albicans [1]): 0.06 µg/mL (≈ 0.105 µM) | MIC (Candida albicans [2]): 0.03 µg/mL (≈ 0.0525 µM) | MIC (Candida parapsilosis): 0.25 µg/mL (≈ 0.438 µM) | MIC (Nakaseomyces glabratus): 8 µg/mL (≈ 14 µM) | MIC (Pichia kudriavzevii): 16 µg/mL (≈ 28 µM) | MIC (Candida tropicalis): 32 µg/mL (≈ 56 µM) | MIC (Cryptococcus neoformans): 4 µg/mL (≈ 7 µM) | MIC (Aspergillus fumigatus): 16 µg/mL (≈ 28 µM) | MIC (Candida albicans [3]): 16 µg/mL (≈ 28 µM) | MIC (Candida albicans [4]): 32 µg/mL (≈ 56 µM) | MIC (Candida albicans [5]): 4 µg/mL (≈ 7 µM) | MIC (Candida albicans [6]): 4 µg/mL (≈ 7 µM) | MIC (Candida albicans [7]): 8 µg/mL (≈ 14 µM)

O=C(/C=C/c1ccc(COC(Cn2ccnc2)c2ccc(Cl)cc2Cl)cc1)NC1CC1 (configuration not stated)
MIC (Candida albicans [1]): 0.25 µg/mL (≈ 0.548 µM) | MIC (Candida albicans [2]): 0.125 µg/mL (≈ 0.274 µM) | MIC (Candida parapsilosis): 1 µg/mL (≈ 2.19 µM) | MIC (Nakaseomyces glabratus): 64 µg/mL (≈ 140 µM) | MIC (Pichia kudriavzevii): 64 µg/mL (≈ 140 µM) | MIC (Candida tropicalis): 4 µg/mL (≈ 8.76 µM) | MIC (Cryptococcus neoformans): 16 µg/mL (≈ 35.1 µM) | MIC (Aspergillus fumigatus): 2 µg/mL (≈ 4.38 µM) | MIC (Candida albicans [3]): 128 µg/mL (≈ 280 µM) | MIC (Candida albicans [4]): 32 µg/mL (≈ 70.1 µM) | MIC (Candida albicans [5]): 1 µg/mL (≈ 2.19 µM) | MIC (Candida albicans [6]): 4 µg/mL (≈ 8.76 µM) | MIC (Candida albicans [7]): 2 µg/mL (≈ 4.38 µM)

CNC(=O)/C=C/c1ccc(COC(Cn2ccnc2)c2ccc(Cl)cc2Cl)cc1 (configuration not stated)
MIC (Candida albicans [1]): 0.25 µg/mL (≈ 0.581 µM) | MIC (Candida albicans [2]): 0.125 µg/mL (≈ 0.29 µM) | MIC (Candida parapsilosis): 4 µg/mL (≈ 9.3 µM) | MIC (Nakaseomyces glabratus): 32 µg/mL (≈ 74.4 µM) | MIC (Pichia kudriavzevii): 16 µg/mL (≈ 37.2 µM) | MIC (Candida tropicalis): 8 µg/mL (≈ 18.6 µM) | MIC (Cryptococcus neoformans): 8 µg/mL (≈ 18.6 µM) | MIC (Aspergillus fumigatus): 8 µg/mL (≈ 18.6 µM) | MIC (Candida albicans [3]): 128 µg/mL (≈ 297 µM) | MIC (Candida albicans [4]): 128 µg/mL (≈ 297 µM) | MIC (Candida albicans [5]): 4 µg/mL (≈ 9.3 µM) | MIC (Candida albicans [6]): 16 µg/mL (≈ 37.2 µM) | MIC (Candida albicans [7]): 16 µg/mL (≈ 37.2 µM)

Cc1ccc(NC(=O)/C=C/c2ccc(COC(Cn3ccnc3)c3ccc(Cl)cc3Cl)cc2)cc1 (configuration not stated)
MIC (Candida albicans [1]): 0.03 µg/mL (≈ 0.0592 µM) | MIC (Candida albicans [2]): 0.06 µg/mL (≈ 0.118 µM) | MIC (Candida parapsilosis): 0.125 µg/mL (≈ 0.247 µM) | MIC (Nakaseomyces glabratus): 16 µg/mL (≈ 31.6 µM) | MIC (Pichia kudriavzevii): 16 µg/mL (≈ 31.6 µM) | MIC (Candida tropicalis): 64 µg/mL (≈ 126 µM) | MIC (Cryptococcus neoformans): 0.125 µg/mL (≈ 0.247 µM) | MIC (Aspergillus fumigatus): 16 µg/mL (≈ 31.6 µM) | MIC (Candida albicans [3]): 4 µg/mL (≈ 7.9 µM) | MIC (Candida albicans [4]): 1 µg/mL (≈ 1.97 µM) | MIC (Candida albicans [5]): 0.25 µg/mL (≈ 0.494 µM) | MIC (Candida albicans [6]): 2 µg/mL (≈ 3.95 µM) | MIC (Candida albicans [7]): 1 µg/mL (≈ 1.97 µM)

O=C(/C=C/c1ccc(COC(Cn2ccnc2)c2ccc(Cl)cc2Cl)cc1)Nc1ccccc1 (configuration not stated)
MIC (Candida albicans [1]): 0.06 µg/mL (≈ 0.122 µM) | MIC (Candida albicans [2]): 0.03 µg/mL (≈ 0.0609 µM) | MIC (Candida parapsilosis): 32 µg/mL (≈ 65 µM) | MIC (Nakaseomyces glabratus): 64 µg/mL (≈ 130 µM) | MIC (Pichia kudriavzevii): 64 µg/mL (≈ 130 µM) | MIC (Candida tropicalis): 2 µg/mL (≈ 4.06 µM) | MIC (Cryptococcus neoformans): 1 µg/mL (≈ 2.03 µM) | MIC (Aspergillus fumigatus): 1 µg/mL (≈ 2.03 µM) | MIC (Candida albicans [3]): 8 µg/mL (≈ 16.2 µM) | MIC (Candida albicans [4]): 128 µg/mL (≈ 260 µM) | MIC (Candida albicans [5]): 0.25 µg/mL (≈ 0.508 µM) | MIC (Candida albicans [6]): 0.5 µg/mL (≈ 1.02 µM) | MIC (Candida albicans [7]): 1 µg/mL (≈ 2.03 µM)

CCNC(=O)/C=C/c1ccc(COC(Cn2ccnc2)c2ccc(Cl)cc2Cl)cc1 (configuration not stated)
MIC (Candida albicans [1]): 0.5 µg/mL (≈ 1.13 µM) | MIC (Candida albicans [2]): 1 µg/mL (≈ 2.25 µM) | MIC (Candida parapsilosis): 8 µg/mL (≈ 18 µM) | MIC (Nakaseomyces glabratus): 16 µg/mL (≈ 36 µM) | MIC (Pichia kudriavzevii): 32 µg/mL (≈ 72 µM) | MIC (Candida tropicalis): 4 µg/mL (≈ 9 µM) | MIC (Cryptococcus neoformans): 8 µg/mL (≈ 18 µM) | MIC (Aspergillus fumigatus): 8 µg/mL (≈ 18 µM) | MIC (Candida albicans [3]): 128 µg/mL (≈ 288 µM) | MIC (Candida albicans [4]): 128 µg/mL (≈ 288 µM) | MIC (Candida albicans [5]): 2 µg/mL (≈ 4.5 µM) | MIC (Candida albicans [6]): 16 µg/mL (≈ 36 µM) | MIC (Candida albicans [7]): 16 µg/mL (≈ 36 µM)

O=C(/C=C/c1ccc(COC(Cn2ccnc2)c2ccc(Cl)cc2Cl)cc1)Nc1ccc(Cl)cc1 (configuration not stated)
MIC (Candida albicans [1]): 0.06 µg/mL (≈ 0.114 µM) | MIC (Candida albicans [2]): 0.03 µg/mL (≈ 0.0569 µM) | MIC (Candida parapsilosis): 0.125 µg/mL (≈ 0.237 µM) | MIC (Nakaseomyces glabratus): 8 µg/mL (≈ 15.2 µM) | MIC (Pichia kudriavzevii): 4 µg/mL (≈ 7.59 µM) | MIC (Candida tropicalis): 1 µg/mL (≈ 1.9 µM) | MIC (Cryptococcus neoformans): 2 µg/mL (≈ 3.8 µM) | MIC (Aspergillus fumigatus): 0.5 µg/mL (≈ 0.949 µM) | MIC (Candida albicans [3]): 8 µg/mL (≈ 15.2 µM) | MIC (Candida albicans [4]): 128 µg/mL (≈ 243 µM) | MIC (Candida albicans [5]): 0.5 µg/mL (≈ 0.949 µM) | MIC (Candida albicans [6]): 0.5 µg/mL (≈ 0.949 µM) | MIC (Candida albicans [7]): 1 µg/mL (≈ 1.9 µM)

Cc1ccccc1NC(=O)/C=C/c1ccc(COC(Cn2ccnc2)c2ccc(Cl)cc2Cl)cc1 (configuration not stated)
MIC (Candida albicans [1]): 0.125 µg/mL (≈ 0.247 µM) | MIC (Candida albicans [2]): 0.03 µg/mL (≈ 0.0592 µM) | MIC (Candida parapsilosis): 0.5 µg/mL (≈ 0.987 µM) | MIC (Nakaseomyces glabratus): 64 µg/mL (≈ 126 µM) | MIC (Pichia kudriavzevii): 16 µg/mL (≈ 31.6 µM) | MIC (Candida tropicalis): 16 µg/mL (≈ 31.6 µM) | MIC (Cryptococcus neoformans): 2 µg/mL (≈ 3.95 µM) | MIC (Aspergillus fumigatus): 2 µg/mL (≈ 3.95 µM) | MIC (Candida albicans [3]): 16 µg/mL (≈ 31.6 µM) | MIC (Candida albicans [4]): 128 µg/mL (≈ 253 µM) | MIC (Candida albicans [5]): 2 µg/mL (≈ 3.95 µM) | MIC (Candida albicans [6]): 2 µg/mL (≈ 3.95 µM) | MIC (Candida albicans [7]): 4 µg/mL (≈ 7.9 µM)
